According to paper PMC10891214, “Effects of food and ethnicity on the pharmacokinetics of venadaparib, a next-generation PARP inhibitor, in healthy Korean, Caucasian, and Chinese male subjects” (Investigational New Drugs, 2023):

Columns and labels:
[1] = in vivo
Method: (§1) Safety was assessed in all subjects who received the study drug at least once throughout the study based on adverse event (AE) monitoring, physical examinations, vital signs, 12-lead electrocardiograms (ECGs), and clinical laboratory tests.
(§2) To support the evaluation of the relationship between concentration and QT/corrected QT (QTc) interval effects in the early stage of the clinical development of venadaparib, triplicate ECG tests were conducted in the middle of the study [22]. A triplicate ECG test was conducted in three Caucasian and five Chinese subjects after the protocol amendment. […] Fridericia’s corrected QT interval (QTcF) was collected, along with the existing ventricular rate, PR interval, QRS duration, QT interval, and QTcB. Triplicate ECGs were measured three times at intervals of 30 s to 2 min at each time point after at least 5 min of resting, and the median value of the three measurements was considered a representative value. QTcF and QTcB were calculated using the following population-derived correction equations: QTcF = QT/RR^0.33 and QTcB = QT/RR^0.5 [22].

[2] = Safety assessment (adverse events, vital signs, 12-lead ECGs) after a single administration of venadaparib 80 mg; details: for TEAEs: number of events / TEAEs: number of subjects: Koreans and Caucasians
Method: as §1, §2

[3] = Caucasian, fasted state (N = 12)

SMILES: O=C(c1cc(Cc2n[nH]c(=O)c3ccccc23)ccc1F)N1CC(CNC2CC2)C1 [venadaparib]
- Infections and infestations: number of events [1]: 1
- Infections and infestations: number of subjects (percentage of subjects) [1]: 1 (8.3)
- Oral herpes: number of events ([1]; po): 1
- Oral herpes: number of subjects (percentage of subjects) ([1]; po): 1 (8.3)
- Changes in vital signs or 12-lead ECGs ([2]; 80 mg single dose): No clinically significant changes
- Serious AEs ([2]; 80 mg single dose, all groups): No serious AEs were observed
- Severity of TEAEs ([2]; 80 mg single dose, except contact dermatitis (moderate) in one subject, fed state): mild
- Effect of plasma concentrations on QTcF and QTcB values, including changes from the baseline ([2]; 80 mg single dose, triplicate ECG subset): did not prolong
- Safety and tolerability of a single dose ([2]; 80 mg, fasted and fed states, healthy subjects): safe and well-tolerated
- Blood bilirubin increased: number of events [2, 3]: 1
- Chalazion: number of events [2, 3]: 1
- Chalazion: number of subjects (percentage of subjects) [2, 3]: 1 (8.3)
- Eye disorders: number of events [2, 3]: 1
- Eye disorders: number of subjects (percentage of subjects) [2, 3]: 1 (8.3)
- Gastrointestinal disorders: number of events [2, 3]: 1
- Gastrointestinal disorders: number of subjects (percentage of subjects) [2, 3]: 1 (8.3)
- Hyperuricaemia: number of events [2, 3]: 1
- Investigations: number of events [2, 3]: 1
- Metabolism and nutrition disorders: number of events [2, 3]: 1
- Metabolism and nutrition disorders: number of subjects (percentage of subjects) [2, 3]: 1 (8.3)
- Nausea: number of events [2, 3]: 1
- Nausea: number of subjects (percentage of subjects) [2, 3]: 1 (8.3)
- Blood and lymphatic system disorders: number of events ([2]; Caucasian, fed state (N = 12)): 1
- Blood and lymphatic system disorders: number of subjects (percentage of subjects) ([2]; Caucasian, fed state (N = 12)): 1 (8.3)
- Blood bilirubin increased: number of events ([2]; Caucasian, fed state (N = 12)): 1
- Blood bilirubin increased: number of subjects (percentage of subjects) ([2]; Caucasian, fed state (N = 12)): 1 (8.3)
- Decreased appetite: number of events ([2]; Caucasian, fed state (N = 12)): 1
- Decreased appetite: number of subjects (percentage of subjects) ([2]; Caucasian, fed state (N = 12)): 1 (8.3)
- Dermatitis contact: number of events ([2]; Caucasian, fed state (N = 12)): 1
- Dermatitis contact: number of subjects (percentage of subjects) ([2]; Caucasian, fed state (N = 12)): 1 (8.3)
- Eosinophilia: number of events ([2]; Caucasian, fed state (N = 12)): 1
- Eosinophilia: number of subjects (percentage of subjects) ([2]; Caucasian, fed state (N = 12)): 1 (8.3)
- Epigastric discomfort: number of events ([2]; Caucasian, fed state (N = 12)): 1
- Epigastric discomfort: number of subjects (percentage of subjects) ([2]; Caucasian, fed state (N = 12)): 1 (8.3)
- Gastrointestinal disorders: number of events ([2]; Caucasian, fed state (N = 12)): 1
- General disorders and administration site conditions: number of events ([2]; Caucasian, fed state (N = 12)): 1
- General disorders and administration site conditions: number of subjects (percentage of subjects) ([2]; Caucasian, fed state (N = 12)): 1 (8.3)
- Headache: number of events ([2]; Caucasian, fed state (N = 12)): 1
- Headache: number of subjects (percentage of subjects) ([2]; Caucasian, fed state (N = 12)): 1 (8.3)
- Hyperuricaemia: number of events ([2]; Caucasian, fed state (N = 12)): 1
- Hyperuricaemia: number of subjects (percentage of subjects) ([2]; Caucasian, fed state (N = 12)): 1 (8.3)
- Investigations: number of events ([2]; Caucasian, fed state (N = 12)): 1
- Investigations: number of subjects (percentage of subjects) ([2]; Caucasian, fed state (N = 12)): 1 (8.3)
- Lethargy: number of events ([2]; Caucasian, fed state (N = 12)): 1
- Lethargy: number of subjects (percentage of subjects) ([2]; Caucasian, fed state (N = 12)): 1 (8.3)
- Metabolism and nutrition disorders: number of events ([2]; Caucasian, fed state (N = 12)): 2
- Metabolism and nutrition disorders: number of subjects (percentage of subjects) ([2]; Caucasian, fed state (N = 12)): 2 (16.7)
- Nervous system disorders: number of events ([2]; Caucasian, fed state (N = 12)): 2
- Nervous system disorders: number of subjects (percentage of subjects) ([2]; Caucasian, fed state (N = 12)): 2 (16.7)
- Skin and subcutaneous tissue disorders: number of events ([2]; Caucasian, fed state (N = 12)): 1
- Skin and subcutaneous tissue disorders: number of subjects (percentage of subjects) ([2]; Caucasian, fed state (N = 12)): 1 (8.3)
- Thirst: number of events ([2]; Caucasian, fed state (N = 12)): 1
- Thirst: number of subjects (percentage of subjects) ([2]; Caucasian, fed state (N = 12)): 1 (8.3)
- Total TEAEs: number of events ([2]; Caucasian, fed state (N = 12)): 9
- Total TEAEs: number of subjects (percentage of subjects) ([2]; Caucasian, fed state (N = 12)): 7 (58.3)
- Decreased appetite: number of events ([2]; Chinese, fasted state (N = 12)): 1
- Decreased appetite: number of subjects (percentage of subjects) ([2]; Chinese, fasted state (N = 12)): 1 (8.3)
- Dyspepsia: number of events ([2]; Chinese, fasted state (N = 12)): 1
- Dyspepsia: number of subjects (percentage of subjects) ([2]; Chinese, fasted state (N = 12)): 1 (8.3)
- Gastrointestinal disorders: number of events ([2]; Chinese, fasted state (N = 12)): 1
- Gastrointestinal disorders: number of subjects (percentage of subjects) ([2]; Chinese, fasted state (N = 12)): 1 (8.3)
- Hypertriglyceridaemia: number of events ([2]; Chinese, fasted state (N = 12)): 1
- Hypertriglyceridaemia: number of subjects (percentage of subjects) ([2]; Chinese, fasted state (N = 12)): 1 (8.3)
- Metabolism and nutrition disorders: number of events ([2]; Chinese, fasted state (N = 12)): 2
- Metabolism and nutrition disorders: number of subjects (percentage of subjects) ([2]; Chinese, fasted state (N = 12)): 2 (16.7)
- Abdominal pain: number of events ([2]; Korean, fasted state (N = 12)): 1
- Abdominal pain: number of subjects (percentage of subjects) ([2]; Korean, fasted state (N = 12)): 1 (8.3)
- Dyspepsia: number of events ([2]; Korean, fasted state (N = 12)): 1
- Dyspepsia: number of subjects (percentage of subjects) ([2]; Korean, fasted state (N = 12)): 1 (8.3)
- Gastrointestinal disorders: number of events ([2]; Korean, fasted state (N = 12)): 4
- Gastrointestinal disorders: number of subjects (percentage of subjects) ([2]; Korean, fasted state (N = 12)): 3 (25.0)
- Gingival pain: number of events ([2]; Korean, fasted state (N = 12)): 1
- Gingival pain: number of subjects (percentage of subjects) ([2]; Korean, fasted state (N = 12)): 1 (8.3)
- Nausea: number of events ([2]; Korean, fasted state (N = 12)): 1
- Nausea: number of subjects (percentage of subjects) ([2]; Korean, fasted state (N = 12)): 1 (8.3)
- Decreased appetite: number of events ([2]; Korean, fed state (N = 13)): 3
- Decreased appetite: number of subjects (percentage of subjects) ([2]; Korean, fed state (N = 13)): 3 (23.1)
- Dyspepsia: number of events ([2]; Korean, fed state (N = 13)): 2
- Dyspepsia: number of subjects (percentage of subjects) ([2]; Korean, fed state (N = 13)): 1 (7.7)
- Eye disorders: number of events ([2]; Korean, fed state (N = 13)): 3
- Eye disorders: number of subjects (percentage of subjects) ([2]; Korean, fed state (N = 13)): 1 (7.7)
- Eye pain: number of events ([2]; Korean, fed state (N = 13)): 1
- Eye pain: number of subjects (percentage of subjects) ([2]; Korean, fed state (N = 13)): 1 (7.7)
- Gastrointestinal disorders: number of events ([2]; Korean, fed state (N = 13)): 7
- Gastrointestinal disorders: number of subjects (percentage of subjects) ([2]; Korean, fed state (N = 13)): 5 (38.5)
- Hyperaemia: number of events ([2]; Korean, fed state (N = 13)): 1
- Hyperaemia: number of subjects (percentage of subjects) ([2]; Korean, fed state (N = 13)): 1 (7.7)
- Lacrimation increased: number of events ([2]; Korean, fed state (N = 13)): 1
- Lacrimation increased: number of subjects (percentage of subjects) ([2]; Korean, fed state (N = 13)): 1 (7.7)
- Metabolism and nutrition disorders: number of events ([2]; Korean, fed state (N = 13)): 3
- Metabolism and nutrition disorders: number of subjects (percentage of subjects) ([2]; Korean, fed state (N = 13)): 3 (23.1)
- Musculoskeletal and connective tissue disorders: number of events ([2]; Korean, fed state (N = 13)): 1
- Musculoskeletal and connective tissue disorders: number of subjects (percentage of subjects) ([2]; Korean, fed state (N = 13)): 1 (7.7)
- Nausea: number of events ([2]; Korean, fed state (N = 13)): 5
- Nausea: number of subjects (percentage of subjects) ([2]; Korean, fed state (N = 13)): 5 (38.5)
- Respiratory, thoracic, and mediastinal disorders: number of events ([2]; Korean, fed state (N = 13)): 1
- Respiratory, thoracic, and mediastinal disorders: number of subjects (percentage of subjects) ([2]; Korean, fed state (N = 13)): 1 (7.7)
- Rhabdomyolysis: number of events ([2]; Korean, fed state (N = 13)): 1
- Rhabdomyolysis: number of subjects (percentage of subjects) ([2]; Korean, fed state (N = 13)): 1 (7.7)
- Rhinorrhoea: number of events ([2]; Korean, fed state (N = 13)): 1
- Rhinorrhoea: number of subjects (percentage of subjects) ([2]; Korean, fed state (N = 13)): 1 (7.7)
- Total TEAEs: number of events ([2]; Korean, fed state (N = 13)): 16
- Total TEAEs: number of subjects (percentage of subjects) ([2]; Korean, fed state (N = 13)): 6 (46.2)
- Vascular disorders: number of events ([2]; Korean, fed state (N = 13)): 1
- Vascular disorders: number of subjects (percentage of subjects) ([2]; Korean, fed state (N = 13)): 1 (7.7)
- Vision blurred: number of events ([2]; Korean, fed state (N = 13)): 1
- Vision blurred: number of subjects (percentage of subjects) ([2]; Korean, fed state (N = 13)): 1 (7.7)
- TEAEs: number of events ([2]; fasted state, 80 mg): nine
- TEAEs: number of subjects ([2]; fasted state, 80 mg): seven
- TEAEs: number of events ([2]; fed state, 80 mg): 25
- TEAEs: number of subjects ([2]; fed state, 80 mg): 13
